Patent US10830770B2, “Cell death assay” (HQ MEDICAL (NETHERLANDS) B.V., priority 2012, dated 2020)

What follows are compounds tested on 4T1-luc2 mouse breast cancer cells (assay: dry-ice dead-cells-assay (in vitro model of cryo-induced cell death)). Details: Trypan Blue 0.2% in culture medium, 15 min, FIG. 4A.
Type: cell-based
Experimental: The dead cell targeting properties of seven HQ medical compounds (HQ1-7) were assessed in a newly developed in vitro assay of living and dead 4T1-luc2 mouse breast cancer cells. For this 4T1-luc2 cells were cultured to confluence in 12-well plates and a local area of cell death was induced by applying a bar of dry ice to the bottom of the culture well. Subsequently, the cells were incubated with the test compounds, washed and imaged with the Lycor Odyssey.
4T1-Luc cells were seeded onto individual wells from a 12-well cell culture plate and allowed to grow to confluence in RPMI media supplemented with 10% fetal bovine serum. 4T1-luc2 mouse breast cancer cells were used as the adherence of these cells to the bottom of the culture well remains strong after dry-ice treatment. To initiate cryo-induced cell death, media was discarded and dry-ice was applied to the bottom center of each individual well for 15 sec. Subsequently, fresh medium with different concentrations of the HQ medical compounds (HQ1-7) were added and cells were incubated at 37° C. for 15 min. After incubation, the media were discarded and the cells were washed twice with serum free medium and 0.5 ml fresh RPMI was added to each well. Cells were then visualized using a Licor Odyssey equipped with 700 and 800 nm diode laser. Luciferin ([…]) was also added to each well and fluorescence and bioluminescence images were acquired using an IVIS Spectrum (fluorescence: excitation filter: 710 nm, emission filter: 820 nm, exposure time: 90 s, bin: 8, f/stop: 2, field of view: 12.9 cm) (bioluminescence: open filter, exposure time: 30 s, bin: 8, f/stop: 1, field of view: 12.9 cm). Some culture wells were also stained for 15 min with Trypan Blue (0.2% in culture medium) to confirm cell death.
Confluent cultures of 4T1-luc2 breast cancer cells were treated for 15 sec with a focal application of dry-ice to the bottom center of a culture well and were used to examine the dead cell binding properties of the seven HQ medical NIRF compounds. First, however, in order to confirm the presence of a local area of dead cells, the dry-ice treated cultures were incubated with Trypan blue or were treated with luciferin and measured for bioluminescence.
HQ medical #1-7 were examined for their imaging potential of dead cells in the present dry-ice dead-cells-assay. The cells were incubated with the HQ medical compounds with concentrations ranging from 0.5 to 0.001 uM. HQ medical #4-7, all specifically bound to dead cells (FIGS. 5A and B). […] For HQ medical #6 and 7, a signal from the dead cell area could be detected at least 50-fold higher concentrations.

Compound	uptake of Trypan Blue at site of focal dry-ice treatment compared to viable cells in the periphery
Cc1cc(-c2ccc(/N=N/c3c(S(=O)(=O)O)cc4cc(S(=O)(=O)O)cc(N)c4c3O)c(C)c2)ccc1/N=N/c1c(S(=O)(=O)O)cc2cc(S(=O)(=O)O)cc(N)c2c1O [Trypan Blue]	increased uptake

Same assay, conditions: dead vs living cells

Compound	binding to dead cells
CC1(C)C(/C=C/C2=C(Oc3ccc(S(=O)(=O)O)cc3)C(=C/C=C3/N(CCCCS(=O)(=O)O)c4ccc(S(=O)(=O)[O-])cc4C3(C)C)/CCC2)=[N+](CCCCCC(=O)O)c2ccc(S(=O)(=O)O)cc21 [CW 800]	specific binding to dead cells
CCN1C(=CC=CC2=[N+](CCCCCC(=O)O)c3ccc(S(=O)(=O)O)cc3C2(C)C)C(C)(C)c2cc(S(=O)(=O)[O-])ccc21 [CY3]	specific binding to dead cells
CCN1/C(=C/C=C/C=C/C2=[N+](CCCCCC(=O)O)c3ccc(S(=O)(=O)O)cc3C2(C)C)C(C)(C)c2cc(S(=O)(=O)[O-])ccc21 [CY5]	specific binding to dead cells
CCN1C(=CC=CC=CC=CC2=[N+](CCCCCC(=O)O)c3ccc(S(=O)(=O)O)cc3C2(C)C)C(C)(C)c2cc(S(=O)(=O)[O-])ccc21 [CY7]	specific binding to dead cells
CCN1c2cc3c(cc2C(C)=CC1(C)C)C(=CC=CC1=[N+](CCCS(=O)(=O)[O-])c2ccc(S(=O)(=O)[O-])cc2C1(C)CCCC(=O)O)C=C(c1ccccc1)O3.[Na+] (stereo not drawn) [DY-676]	specific binding to dead cells
CC[N+](CC)=c1ccc2c(C(C)(C)C)cc(/C=C/C=C3/N(CCCS(=O)(=O)[O-])c4ccc(S(=O)(=O)[O-])cc4C3(C)CCCC(=O)O)oc-2c1.[Na+] (stereo not drawn) [DY-681]	specific binding to dead cells
CC[N+](CC)=c1ccc2c(/C=C/C=C/C=C3/N(CCCS(=O)(=O)[O-])c4ccc(S(=O)(=O)[O-])cc4C3(C)CCCC(=O)O)cc(C(C)(C)C)oc-2c1.[Na+] (stereo not drawn) [DY-731]	specific binding to dead cells
CCN1c2cc3c(cc2C(C)=CC1(C)C)/C(=C/C=C/C=C/C1=[N+](CCCS(=O)(=O)[O-])c2ccc(S(=O)(=O)[O-])cc2C1(C)CCCC(=O)O)C=C(c1ccccc1)O3.[Na+] (stereo not drawn) [DY-776]	specific binding to dead cells
CC1(C)C(/C=C/C=C/C=C/C=C2\N(CCCCS(=O)(=O)[O-])c3ccc4ccccc4c3C2(C)C)=[N+](CCCCS(=O)(=O)[O-])c2ccc3ccccc3c21.[Na+] [ICG]	specific binding to dead cells
CC1(C)C(=CC=C2CCCC(C=CC3=[N+](CCC[N+](C)(C)C)c4ccc(S(=O)(=O)O)cc4C3(C)C)=C2Oc2ccc(CCC(=O)O)cc2)N(CCC[N+](C)(C)C)c2ccc(S(=O)(=O)O)cc21 [ZW800]	specific binding to dead cells
CY5.5	specific binding to dead cells
